Measured values from patent US12060351B2, “Thiadiazole IRAK4 inhibitors” (Gilead Sciences, Inc., priority 2018, dated 2024).
Like-named read-outs stand apart in the source and are kept apart here.

How the values were obtained:
[1] = system: TNFα; assay: IRAK4 Monocyte TNFα Cell Based Assay (LPS-stimulated, TR-FRET TNFα detection); parameters: species or system human; conditions: Homo sapiens, Monocyte, read-out: EC50 MONO TNF HTRF
Method in brief: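 Monocytes (5,000 cells/well) treated with compound (0.1% DMSO) for 1 hour at 37° C, then stimulated with 50 pg/ml LPS for 4 hours. TNFα in medium quantified by TR-FRET two-antibody detection after overnight room-temperature incubation. Percent of control calculated against unstimulated (0%) and LPS-stimulated (100%) cells.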

[2] = biological target: T1, IRAK4 enzyme (Homo sapiens, UniProt Q9NWZ3); assay: IRAK4 Biochemical Assay (TR-FRET, STK1 KinEASE); conditions: 500 μM ATP, Table 2 second part (compounds 33-343), read-out: IC50 IRAK4-HTBS
T1 construct: purchased Carna Biosciences, Chuo-ku, Kobe, Japan
T1 sequence (Q9NWZ3 1-460): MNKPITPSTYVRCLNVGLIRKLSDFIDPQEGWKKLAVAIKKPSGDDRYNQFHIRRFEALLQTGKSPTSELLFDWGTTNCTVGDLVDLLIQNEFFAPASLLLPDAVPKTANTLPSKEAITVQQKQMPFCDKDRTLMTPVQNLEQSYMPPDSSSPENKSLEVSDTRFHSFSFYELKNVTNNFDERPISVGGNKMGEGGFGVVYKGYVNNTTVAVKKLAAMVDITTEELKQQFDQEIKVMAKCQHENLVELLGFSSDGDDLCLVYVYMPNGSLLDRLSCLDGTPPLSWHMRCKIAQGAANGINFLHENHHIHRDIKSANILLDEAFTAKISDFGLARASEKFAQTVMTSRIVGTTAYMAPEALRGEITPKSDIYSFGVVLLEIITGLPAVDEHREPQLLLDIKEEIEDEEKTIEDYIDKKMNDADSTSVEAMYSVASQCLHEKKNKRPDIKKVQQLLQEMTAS
Protocol: IRAK4 enzyme (Carna Biosciences, Chuo-ku, Kobe, Japan) activity was measured by detecting phosphorylated peptide substrate formation using an antibody against the phosphorylated peptide substrate. This is a time-resolved fluorescence resonance energy transfer (TR-FRET) immunoassay, based on the STK1 KinEASE Assay (Cisbio, Bedford, Massachusetts). The assay was designed as a simple two-step, endpoint assay (a 5 μl enzyme reaction followed by 5 μl stop and detect Solution) performed in ProxiPlate-384 Plus plates (Perkin Elmer, Waltham, Massachusetts). […] Compounds diluted in DMSO were spotted into 384 well plates using a Labcyte® Echo 550 Liquid Handling System prior to addition of IRAK4 enzyme and peptide substrate. Reaction solutions were delivered using a Multi-Flo (Bio-Tek Instruments). The enzyme and peptide solution was incubated with compound for 15 minutes at room temp before the reaction was initiated by the addition of ATP. The standard 5 μl reaction mixture contained 500 μM ATP, 2 μM peptide (STK1 Peptide), 0.75 nM of IRAK4 in reaction buffer (50 mM HEPES, pH 7.0, 0.02% NaN3, 0.01% BSA, 0.1 mM Orthovanadate, 5 mM MgCl2, 0.025% NP-40, 1 mM DTT). After 120 min of incubation at room temperature, 5 μl of Stop and Detect Solution (1:100 Cryptate labeled anti-phosphorylated peptide antibody solution and 125 nM Tracer in a 50 mM HEPES pH 7.0 detection buffer containing sufficient EDTA) was added. The plate was then further incubated for 60 minutes at room temperature and read on Envision 2103 Multilabeled reader (PerkinElmer) with excitation/emission/FRET emission at 340 nm/615 nm/665 nm, respectively. Fluorescence intensities at 615 nm and 665 nm emission wavelengths were expressed as a ratio (665 nm/615 nm).

[3] = human monocytes, LPS-stimulated, Table 2 second part (compounds 33-343)

Row | Structure (SMILES) | EC50 [1, 3] [nM] | IC50 [2] [nM] | EC50 [1] [nM]
1 | CC(C)Nc1cc(-c2ccc3cc(C#N)cnn23)ncc1-c1nnc(N2C[C@H]3CC[C@@H](C2)[C@@H]3N2CCOC2=O)s1 [Compound 301, 7-(4-(isopropylamino)-5-(5-((1R,5S,8s)-8-(2-oxooxazolidin-3-yl)-3-azabicyclo[3.2.1]octan-3-yl)-1,3,4-thiadiazol-2-yl)pyridin-2-yl)pyrrolo[1,2-b]pyridazine-3-carbonitrile] | 4.9 | 1.04 | –
2 | CC(C)Nc1cc(-c2ccc3cc(C#N)cnn23)ncc1-c1nnc(N2C[C@H]3CC[C@@H](C2)[C@@H]3Nc2ncccn2)s1 [Compound 308, 7-(4-(isopropylamino)-5-(5-((1R,5S,8s)-8-(pyrimidin-2-ylamino)-3-azabicyclo[3.2.1]octan-3-yl)-1,3,4-thiadiazol-2-yl)pyridin-2-yl)pyrrolo[1,2-b]pyridazine-3-carbonitrile] | 18.4 | 1.85 | –
3 | CC(C)Nc1cc(-c2ccc3cc(C#N)cnn23)ncc1-c1nnc(N2C[C@H]3CC[C@@H](C2)[C@@H]3Nc2ncccc2F)s1 [Compound 309, 7-(5-(5-((1R,5S,8s)-8-((3-fluoropyridin-2-yl)amino)-3-azabicyclo[3.2.1]octan-3-yl)-1,3,4-thiadiazol-2-yl)-4-(isopropylamino)pyridin-2-yl)pyrrolo[1,2-b]pyridazine-3-carbonitrile] | 687 | 29.4 | –
4 | CC(C)Nc1cc(-c2ccc3cc(C#N)cnn23)ncc1-c1nnc(NCC(C)(C)O)s1 [Example 37, 7-(5-(5-((2-hydroxy-2-methylpropyl)amino)-1,3,4-thiadiazol-2-yl)-4-(isopropylamino)pyridin-2-yl)pyrrolo[1,2-b]pyridazine-3-carbonitrile] | ≥ 10000 | ≥ 1000 | –
5 | CC(=O)N[C@H]1[C@@H]2C[C@H]1CN(c1nnc(-c3cnc(-c4ccc5cc(C#N)cnn45)cc3NC(C)C)s1)C2 [Example 45, N-((1R,5S,6r)-3-(5-(6-(3-cyanopyrrolo[1,2-b]pyridazin-7-yl)-4-(isopropylamino)pyridin-3-yl)-1,3,4-thiadiazol-2-yl)-3-azabicyclo[3.1.1]heptan-6-yl)acetamide] | – | 1.13 | 11.8
6 | CC(=O)N[C@H]1C[C@H]2CC[C@@H](C1)N2c1nnc(-c2cnc(-c3ccc4cc(C#N)cnn34)cc2NC(C)C)s1 [Example 55, N-((1R,3r,5S)-8-(5-(6-(3-cyanopyrrolo[1,2-b]pyridazin-7-yl)-4-(isopropylamino)pyridin-3-yl)-1,3,4-thiadiazol-2-yl)-8-azabicyclo[3.2.1]octan-3-yl)acetamide] | – | 0.54 | 115
7 | CC(=O)N[C@@H]1C[C@H]2CC[C@@H](C1)N2c1nnc(-c2cnc(-c3ccc4cc(C#N)cnn34)cc2NC(C)C)s1 [Example 56, N-((1R,3s,5S)-8-(5-(6-(3-cyanopyrrolo[1,2-b]pyridazin-7-yl)-4-(isopropylamino)pyridin-3-yl)-1,3,4-thiadiazol-2-yl)-8-azabicyclo[3.2.1]octan-3-yl)acetamide] | – | 0.49 | 8.3

The next lines start with results.

Row | EC50 [1, 3] [nM] | IC50 [2] [nM] | Structure (SMILES) | EC50 [1] [nM]
8 | 22.6 | 0.8 | CC(C)(O)C(=O)N[C@H]1CC[C@@H](c2nnc(-c3cnc(-c4ccc5cc(C#N)cnn45)cc3NC3COC3)s2)CC1 [Compound 311, N-((1s,4s)-4-(5-(6-(3-cyanopyrrolo[1,2-b]pyridazin-7-yl)-4-(oxetan-3-ylamino)pyridin-3-yl)-1,3,4-thiadiazol-2-yl)cyclohexyl)-2-hydroxy-2-methylpropanamide] | –
9 | 17.5 | 0.91 | CC(C)Nc1cc(-c2ccc3cc(C#N)cnn23)ncc1-c1nnc([C@H]2CC[C@@H](NC(=O)C(C)(C)O)CC2)s1 [Compound 312, N-((1s,4s)-4-(5-(6-(3-cyanopyrrolo[1,2-b]pyridazin-7-yl)-4-(isopropylamino)pyridin-3-yl)-1,3,4-thiadiazol-2-yl)cyclohexyl)-2-hydroxy-2-methylpropanamide] | –
10 | 4.9 | 0.55 | COC(=O)N[C@H]1CC[C@H](Nc2cc(-c3ccc4cc(C#N)cnn34)ncc2-c2nnc([C@H]3CC[C@H](NC(C)=O)CC3)s2)CC1 [Example 34, methyl ((1R,4r)-4-((5-(5-((1r,4R)-4-acetamidocyclohexyl)-1,3,4-thiadiazol-2-yl)-2-(3-cyanopyrrolo[1,2-b]pyridazin-7-yl)pyridin-4-yl)amino)cyclohexyl)carbamate] | –
11 | 3.5 | 0.8 | CC(=O)N[C@@H]1[C@@H]2CC[C@H]1CN(c1nnc(-c3cnc(-c4ccc5cc(C#N)cnn45)cc3NC(C)C)s1)C2 [Example 38, N-((1R,5S,8s)-3-(5-(6-(3-cyanopyrrolo[1,2-b]pyridazin-7-yl)-4-(isopropylamino)pyridin-3-yl)-1,3,4-thiadiazol-2-yl)-3-azabicyclo[3.2.1]octan-8-yl)acetamide] | –
12 | 10.4 | 0.89 | CC(=O)N[C@H]1[C@@H]2CC[C@H]1CN(c1nnc(-c3cnc(-c4ccc5cc(C#N)cnn45)cc3NC(C)C)s1)C2 [Example 39, N-((1R,5S,8r)-3-(5-(6-(3-cyanopyrrolo[1,2-b]pyridazin-7-yl)-4-(isopropylamino)pyridin-3-yl)-1,3,4-thiadiazol-2-yl)-3-azabicyclo[3.2.1]octan-8-yl)acetamide] | –
13 | 4.7 | 1.73 | COC(=O)NC[C@H]1C[C@H](Nc2cc(-c3ccc4cc(C#N)cnn34)ncc2-c2nnc(N3CCN4CCOC[C@H]4C3)s2)C1 [Example 51, methyl (((1R,3r)-3-((2-(3-cyanopyrrolo[1,2-b]pyridazin-7-yl)-5-(5-((R)-hexahydropyrazino[2,1-c][1,4]oxazin-8(1H)-yl)-1,3,4-thiadiazol-2-yl)pyridin-4-yl)amino)cyclobutyl)methyl)carbamate] | –
14 | 4.1 | 0.82 | COC(=O)NC[C@H]1C[C@H](Nc2cc(-c3ccc4cc(C#N)cnn34)ncc2-c2nnc(N3C[C@H]4CC[C@@H](C3)[C@@H]4NC(C)=O)s2)C1 [Example 52, methyl (((1R,3r)-3-((5-(5-((1R,5S,8S)-8-acetamido-3-azabicyclo[3.2.1]octan-3-yl)-1,3,4-thiadiazol-2-yl)-2-(3-cyanopyrrolo[1,2-b]pyridazin-7-yl)pyridin-4-yl)amino)cyclobutyl)methyl)carbamate] | –
15 | 2.4 | 0.73 | COC(=O)N[C@H]1CC[C@H](Nc2cc(-c3ccc4cc(C#N)cnn34)ncc2-c2nnc(N3C[C@H]4CC[C@@H](C3)[C@@H]4NC(C)=O)s2)CC1 [Example 54, methyl ((1R,4r)-4-((5-(5-((1R,5S,8S)-8-acetamido-3-azabicyclo[3.2.1]octan-3-yl)-1,3,4-thiadiazol-2-yl)-2-(3-cyanopyrrolo[1,2-b]pyridazin-7-yl)pyridin-4-yl)amino)cyclohexyl)carbamate] | –
16 | 6.8 | 1.16 | CC(C)Nc1cc(-c2ccc3cc(C#N)cnn23)ncc1-c1nnc(N2C[C@H]3CC[C@@H](C2)[C@@H]3NC(=O)N2CCOCC2)s1 [Example 57, N-((1R,5S,8s)-3-(5-(6-(3-cyanopyrrolo[1,2-b]pyridazin-7-yl)-4-(isopropylamino)pyridin-3-yl)-1,3,4-thiadiazol-2-yl)-3-azabicyclo[3.2.1]octan-8-yl)morpholine-4-carboxamide] | –
